According to article PMC8466962, “Isolation and Biological Characterization of Homoisoflavanoids and the Alkylamide N-p-Coumaroyltyramine from Crinum biflorum Rottb., an Amaryllidaceae Species Collected in Senegal” (Biomolecules, 2021):

Tests used:
[1] = system: acetylcholinesterase (AChE); experiment: Anti-acetylcholinesterase assay (Ellman); format: biochemical
Experimental: In vitro acetylcholinesterase (AChE) activity was assessed exactly as in Ka et al. (2020) following Ellman’s colorimetric protocol with the Acetylcholinesterase Assay Kit (Abcam Inc., Boston, MA, USA). Briefly, 50 µL serial dilutions (3.9–500 µM) of compounds 1–5 were prepared in Tris-HCl pH = 7.9 buffer into designated wells of a clear 96 well-plate. A total of 5 µL of DTNB was added in each well, then 50 µL of diluted acetycholinesterase was added. The plate was incubated for 10 min in the dark. Matched concentrations of DMSO were used as a negative control. Kinetic of reaction was measured in a multiple plate reader at 410 nm in kinetic mode for 40 min at room temperature. The percentage of anti-AChE inhibition was calculated according to the following formula: 100 − [((E − S)/E) × 100], where E is the activity of the enzyme with matched concentrations of DMSO and S is the activity of the enzyme with the test sample.

in vitro [2] = settings: human, HaCaT immortalized keratinocytes
Text: (§2) HeLa cervical cancer cells (CCL-2) and A431 (ATCC-CRL1555) human epidermoid carcinoma cells were from American Type Culture Co [...

THP-1 cells = experiment: Propidium iodide cytotoxicity in THP-1 cells; settings: 72 h; for PI+ cells: 100 μM; for Dead cells: all concentrations tested (12.5-100 μM)
in vitro [3] = settings: human, A431 epidermoid carcinoma cells
Text: as §2

in vitro [4] = settings: human; for IC50 at 24 h: HeLa cervical cancer cells
Text: as §2

[5] = system: VSV-G pseudotyped HIV-1GFP; experiment: VSV-G pseudotyped HIV-1GFP infectivity assay in THP-1 cells; format: cell-based; settings: for Infection (mean % HIV-1GFP+ cells): 100 μM, THP-1, MOI 1, 72 h, DMSO 8.16%; for Fold decrease in infection: 50 μM, THP-1, 72 h; for Infection levels at lower concentrations: below 50 μM (12.5, 25 μM)
α-glucosidase = α-glucosidase inhibitor assay (colorimetric kit); format: biochemical
Experimental: (§1) α-glucosidase and α-amylase inhibitor screening kits (colorimetric) were purchased from Biovision (Milpitas, CA, USA). In total, 10 mM of stock solution of all the tested compounds were dissolved in DMSO and serially diluted in the assay buffer of each kit. Experiments were performed according to the manufacturer’s protocol. Briefly, for the α-glucosidase assay, 10 µL of serially diluted compounds at the corresponding concentration ([…]–1 mM) were added into designated wells of clear 96 well-plates. Subsequently, 10 µL of the α-glycosidase enzyme was added to each well and volume was adjusted to 80 µL and plates were incubated for 15-min at room temperature in dark condition. Then, 20 µL of α-glycosidase substrate mixture was added in all wells and kinetic of reaction was measured at OD: 410 nm for 60 min at 2 min intervals by using a multiplate reader, Biotek instrument, Inc., Canada. Enzyme control (no inhibitor), background control (no enzyme), solvent control (DMSO) and inhibitor control (acarbose) were included in the plates. For the α-amylase assay, 50 µL of serially diluted compounds (3.25 µM to 500 µM) were added into a clear 96-well plate with 50 µL of assay buffer and 50 µL of α-amylase enzymes. The plate was incubated at room temperature in the dark for 10 min. Then 50 µL of the α-amylase substrate was added in all wells. The kinetic of reaction was measured at OD:410 nm for 26 min at intervals of 2 min by using a multiplate reader. Control α-amylase inhibitor was provided by the manufacturer, enzyme control, background control and solvent control were all included. Enzyme inhibition was calculated according to Zhang et al. (2014). In summary, ODs were plotted according to the time for each sample. Areas under the curve (AUC) were calculated, and enzyme inhibition was measured as 100−(AUCcompound/AUCenzyme) × 100 for each dilution of each compound.

[6] = system: HaCaT, HeLa and A431 cells; experiment: γ-H2AX foci immunofluorescence (DNA damage); format: cell-based, human; settings: 10 μM, 24 h, all tested cell lines
Experimental: Cells were seeded in 35 mm dishes on micro cover glasses (BDH) and treated with the metabolite at a concentration of 10 μM. […] Cells were permeabilized with ice-cold 0.5% Triton X-100 for 5 min and then washed with PBS. Cells were then incubated with phospho-histone H2A.X (Ser139) antibody (from Cell Signaling Technologies 9542, Boston, MA, USA) for 1 h, followed by DAPI (Sigma-Aldrich) for 3 min and washed with PBS/0.05% Tween. Coverslip was mounted with Ibidi mounting medium (Ibidi GmbH, Martinsried, Germany). Images were taken with a Zeiss confocal laser-scanning microscope Axio Observer (Zeiss, Ostfilden, Germany) (scale bar, 20 μm). A 40× objective was used and image analysis was performed using Fiji ImageJ open source software project (https://imagej.net/imaging/). All the images were taken with the same setting.

[7] = system: HaCaT immortalized keratinocytes; settings: for Effect on HaCaT cell viability: incubation extended for 48 h, 0.5 to 10 μM
Text: as §2

[8] = system: ovarian carcinoma, melanoma and non-small lung cancer cells; design: method as in PMID 23659371; settings: cited from earlier work
HaCaT cells = experiment: DCFDA assay (ROS); format: cell-based, human; settings: for Production of reactive oxygen species (ROS): 10 µM, HaCaT cells
Experimental: N-p-coumaroyltyramine antioxidant activity was measured using 2′−7′dichlorofluorescein diacetate (DCFDA), a non-fluorescent compound permeable to the cell membrane, which can be oxidized by reactive oxygen species (ROS) giving a fluorescent compound. […] The medium was removed after 4 h and 1 mM (3%) H2O2 was added for 45 min, 1.5 and 2.0 h. Cells were washed with PBS and a fresh medium with DCFDA ([…]) was added for 45 min, then DCFDA was removed by washing in PBS and the cells were harvested. The measurement of ROS was obtained using the Sinergy H4 microplate reader (Gen5 2.07, Thermofisher, Waltham MA, USA). The fluorescence emitted from the cells treated with DCFDA was compared to the untreated cells. Trolox was used as a positive control. Values shown in the plot are mean ± SD of sixfold determinations. The mean and the standard deviation were calculated on biological triplicates using GraphPad Prism 8.0.2 software (GraphPad, San Diego, CA, USA).

α-amylase = α-amylase inhibitor assay (colorimetric kit); format: biochemical; settings: concentrations 3.9-250 μM, 26 min kinetics
Experimental: as §1, with “For the α-amylase assay, 50 µL of serially diluted compounds (3.25 µM to 500 µM) were added into a clear 96-well plate with 50 µL of assay buffer and 50 µL of α-amylase enzymes. The plate was incubated at room temperature in the dark for 10 min. Then 50 µL of the α-amylase substrate was added in all wells.” left out, “Control α-amylase inhibitor was provided by the manufacturer, enzyme control, background control and solvent control were all included.” left out, “In summary, ODs were plotted according to the time for each sample.” left out

[9] = system: A431 human epidermoid carcinoma cells; settings: 0.5 to 10 μM, 24 and 48 h
Text: as §2

[10] = system: HeLa cervical cancer cells; settings: 0.5 to 10 μM, 24 and 48 h
Text: as §2

Zika virus (ZIKV) = system: Zika virus (ZIKV); design: method as in PMID 34152811; settings: read-out: ZIKV replication EC50; cited from earlier work
Dengue virus (DENV) = system: Dengue virus (DENV); design: method as in PMID 34152811; settings: read-out: DENV replication EC50; cited from earlier work
[11] = system: human immunodeficiency virus type 1 (HIV-1); design: method as in PMID 34152811; settings: cited from earlier work
[12] = increasing inhibition from 15.6 μM to 250 μM

Compound | AChE inhibition [1, 12] | IC50 at 24 h (in vitro [2]) [µM] | PI+ cells (THP-1 cells) [%] | IC50 at 24 h (in vitro [3]) [µM] | IC50 at 24 h (in vitro [4]) [µM] | Infection (mean % HIV-1GFP+ cells) [5] [%] | α-glucosidase inhibition (α-glucosidase; 1 mM) [%] | Nuclear γH2AX foci [6] | Dead cells (THP-1 cells) | Effect on HaCaT cell viability [7] | Fold decrease in infection [5] [fold] | Infection levels at lower concentrations [5] | Production of reactive oxygen species (ROS) (HaCaT cells) | other results
COc1cc2c(c(OC)c1OC)C(=O)C(Cc1ccc(O)cc1)CO2 (centres unmarked) [Compound 1, 5,6,7-trimethoxy-3-(4-hydroxybenzyl)chroman-4-one] | up to 20% | > 10 | 8.74 | 6 | 1 | 3.78 | 50 |  |  |  |  |  |  | viability at 48 h, 5 µM (in vitro [4]; HeLa cervical cancer cells (CCL-2)): < 20%
COc1cc2c(c(OC)c1OC)C(=O)C(O)(Cc1ccc(O)cc1)CO2 (centres unmarked) [Compound 2, 3-hydroxy-5,6,7-trimethoxy-3-(4-hydroxybenzyl)chroman-4-one] | up to 20% | > 10 | 4.15 | > 10 | 4 | 4.03 | 50 |  |  |  |  |  |  | 
COc1ccc(CC2(O)COc3cc(OC)c(OC)c(OC)c3C2=O)cc1 (centres unmarked) [Compound 3, 3-hydroxy-5,6,7-trimethoxy-3-(4-methoxybenzyl)chroman-4-one] |  | > 10 |  | 4 | 4.5 | 2.51 | 50 | remarkable increase | 30–40% | significant reduction | 2.0 | decreased infection levels | did not increase | AChE enzyme activity blocked ([1]; concentrations increased from 3.9 to 500 μM): 15–30%; Antiproliferative activity [8]: submicromolar concentration
COc1ccc(CC2COc3cc(OC)c(OC)c(OC)c3C2=O)cc1 (centres unmarked) [Compound 4, 5,6,7-trimethoxy-3-(4-methoxybenzyl)chroman-4-one] | up to 20% | > 10 |  | 6.5 | 5.5 | 2.76 |  | remarkable increase | 30–40% | significant reduction | 2.4 | decreased infection levels | did not increase | 
O=C(/C=C/c1ccc(O)cc1)NCCc1ccc(O)cc1 [Compound 5, (E)-N-(4-hydroxyphenethyl)-3-(4-hydroxyphenyl)acrylamide] |  |  | 5.97 |  |  | 2.12 |  |  |  |  | 1.6 |  |  | AChE inhibition ([1]; high concentrations): weakly inhibited; IC50 (α-amylase): 40 µM; Effect on HaCaT cell viability at the lower concentrations ([7]; 0.5 and 1 μM): significantly increase HaCaT cell viability; Cytotoxic activity IC50, HaCaT ([7]; MTT, 24 h of incubation): Not detected; Toxicity on A431 cancer cells [9]: toxic; Toxicity on HeLa cancer cells [10]: toxic; Antioxidant activity: ROS induced by H2O2 (HaCaT cells; 10 and 100 µM, 4 h pre-treatment, H2O2 1 mM, Trolox positive control): antioxidant activity comparable to Trolox; α-glucosidase inhibition (α-glucosidase; all concentrations tested, 0.01-1000 μM): nearly completely inhibited
COc1cc2c(cc1O)CN(C)C[C@H]2c1ccc(O)cc1 [cherylline] |  |  |  |  |  |  |  |  |  |  |  |  |  | EC50 (Zika virus (ZIKV)): 20.3 µM; EC50 (Dengue virus (DENV)): 8.8 µM; Effect on HIV-1 infection [11]: ineffective
